Assay results reported in US7462600B2, “Macrolides” (Pfizer Inc, priority 2004, dated 2008).
Converted amounts (≈) assume the structure as drawn.

Columns and labels:
Format in all cases: cell-based
[1] = test system: Haemophilus influenzae 1218; experiment: MIC, microtiter broth dilution (NCCLS M100-S14), H. influenzae 1218 (susceptible); conditions: Haemophilus influenzae 1218
Method in brief: (§1)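 Broth microdilution MICs in microtiter trays, run and interpreted per NCCLS M100-S14. Compounds were dissolved in DMSO as 40 mg/ml stocks.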

[2] = test system: Streptococcus pneumoniae 1095; conditions: Streptococcus pneumoniae 1095; microtiter broth dilution
Method in brief: as §1

[3] = test system: Streptococcus pneumoniae 1175; conditions: Streptococcus pneumoniae 1175; microtiter broth dilution
Method in brief: as §1

[4] = test system: Streptococcus pyogenes 1079; experiment: MIC, microtiter broth dilution (NCCLS M100-S14), S. pyogenes 1079 (ermB); conditions: Streptococcus pyogenes 1079
Method in brief: as §1

[5] = test system: Streptococcus pneumoniae 1016; experiment: MIC, microtiter broth dilution (NCCLS M100-S14), S. pneumoniae 1016 (susceptible); conditions: Streptococcus pneumoniae 1016
Method in brief: as §1

SMILES	MIC H. influenzae 1218 [1] [µg/mL]	MIC S. pneumo. 1095 [2] [µg/mL]	MIC S. pneumo. 1175 [3] [µg/mL]	MIC S. pyogenes 1079 [4] [µg/mL]	MIC S. pneumo. 1016 [5] [µg/mL]
CCC1OC(=O)C(C)C(=O)C(C)C(OC2OC(C)CC(N(C)C)C2O)C(C)(OC)CC(C)C(=O)C(C)C2N(CC3CN(Cc4cnc5ncccn45)C3)C(=O)OC12C (centres unmarked) [4.26]	0.25 (≈ 0.308 µM)	2 (≈ 2.46 µM)	2 (≈ 2.46 µM)	>64.00	<0.06
CCC1OC(=O)C(C)C(=O)C(C)C(OC2OC(C)CC(N(C)C)C2O)C(C)(OC)CC(C)C(=O)C(C)C2N(CC3CN(Cc4cn5cccnc5n4)C3)C(=O)OC12C (centres unmarked) [4.27]	1 (≈ 1.23 µM)	>64.00	4 (≈ 4.92 µM)	>64.00	<0.06
CCC1OC(=O)C(C)C(=O)C(C)C(OC2OC(C)CC(N(C)C)C2O)C(C)(OC)CC(C)C(=O)C(C)C2N(CC3CN(Cc4cnc5cnccn45)C3)C(=O)OC12C (centres unmarked) [4.28]	0.25 (≈ 0.308 µM)	8 (≈ 9.84 µM)	1 (≈ 1.23 µM)	>64.00	<0.06
CCC1OC(=O)C(C)C(=O)C(C)C(OC2OC(C)CC(N(C)C)C2O)C(C)(OC)CC(C)C(=O)C(C)C2N(CC3CN(Cc4ccc5ccccc5c4)C3)C(=O)OC12C (centres unmarked) [4.29]	0.12 (≈ 0.146 µM)	2 (≈ 2.43 µM)	<0.06	16 (≈ 19.5 µM)	<0.06
CCC1OC(=O)C(C)C(=O)C(C)C(OC2OC(C)CC(N(C)C)C2O)C(C)(OC)CC(C)C(=O)C(C)C2N(CC3CN(Cc4ccn(-c5cccnc5)n4)C3)C(=O)OC12C.O=CO (centres unmarked) [4.30]	0.5	>64.00	0.25	>64.00	<0.06
CCC1OC(=O)C(C)C(=O)C(C)C(OC2OC(C)CC(N(C)C)C2O)C(C)(OC)CC(C)C(=O)C(C)C2N(CC3CN(Cc4ccn(-c5ccccn5)n4)C3)C(=O)OC12C.O=CO (centres unmarked) [4.31]	0.5	32	<0.06	>64.00	<0.06
CCC1OC(=O)C(C)C(=O)C(C)C(OC2OC(C)CC(N(C)C)C2O)C(C)(OC)CC(C)C(=O)C(C)C2N(CC3CN(C(=O)c4cccc5ncccc45)C3)C(=O)OC12C (centres unmarked) [4.32]	1 (≈ 1.19 µM)	0.5 (≈ 0.597 µM)	<0.06	64 (≈ 76.5 µM)	<0.06
CCC1OC(=O)C(C)C(=O)C(C)C(OC2OC(C)CC(N(C)C)C2O)C(C)(OC)CC(C)C(=O)C(C)C2N(CC3CN(C(=O)c4ccc5ncccc5c4)C3)C(=O)OC12C (centres unmarked) [4.33]	1 (≈ 1.19 µM)	1 (≈ 1.19 µM)	0.25 (≈ 0.299 µM)	64 (≈ 76.5 µM)	<0.06
CCC1OC(=O)C(C)C(=O)C(C)C(OC2OC(C)CC(N(C)C)C2O)C(C)(OC)CC(C)C(=O)C(C)C2N(CC3CN(C(=O)c4cnn5ccccc45)C3)C(=O)OC12C (centres unmarked) [4.35]	1 (≈ 1.21 µM)	1 (≈ 1.21 µM)	0.12 (≈ 0.145 µM)	>64.00	<0.06
CCC1OC(=O)C(C)C(=O)C(C)C(OC2OC(C)CC(N(C)C)C2O)C(C)(OC)CC(C)C(=O)C(C)C2N(CC3CN(Cc4cccc5cccnc45)C3)C(=O)OC12C.O=CO (centres unmarked) [4.36]	<0.06	0.25	<0.06	>64.00	<0.06
CCC1OC(=O)C(C)C(=O)C(C)C(OC2OC(C)CC(N(C)C)C2O)C(C)(OC)CC(C)C(=O)C(C)C2N(CC3CN(C(=O)c4ccnc5ccccc45)C3)C(=O)OC12C.O=CO (centres unmarked) [4.37]	0.5	0.25	<0.06	>64.00	<0.06
CCC1OC(=O)C(C)C(=O)C(C)C(OC2OC(C)CC(N(C)C)C2O)C(C)(OC)CC(C)C(=O)C(C)C2N(CC3CN(C(=O)c4cnc5ccccc5c4)C3)C(=O)OC12C.O=CO (centres unmarked) [4.38]	2	2	<0.06	>64.00	<0.06
CCC1OC(=O)C(C)C(=O)C(C)C(OC2OC(C)CC(N(C)C)C2O)C(C)(OC)CC(C)C(=O)C(C)C2N(CC3CN(C(=O)c4cc5ccccc5cn4)C3)C(=O)OC12C.O=CO (centres unmarked) [4.39]	4	8	<0.06	>64.00	<0.06
CCC1OC(=O)C(C)C(=O)C(C)C(OC2OC(C)CC(N(C)C)C2O)C(C)(OC)CC(C)C(=O)C(C)C2N(CC3CN(C(=O)c4ccc5cccnc5n4)C3)C(=O)OC12C.O=CO (centres unmarked) [4.40]	4	8	0.5	>64.00	<0.06
CCC1OC(=O)C(C)C(=O)C(C)C(OC2OC(C)CC(N(C)C)C2O)C(C)(OC)CC(C)C(=O)C(C)C2N(CC3CN(C(=O)c4ccc5cnccc5n4)C3)C(=O)OC12C.O=CO (centres unmarked) [4.41]	2	0.25	<0.06	>64.00	<0.06
CCC1OC(=O)C(C)C(=O)C(C)C(OC2OC(C)CC(N(C)C)C2O)C(C)(OC)CC(C)C(=O)C(C)C2N(CC3CN(Cc4cnn5ccccc45)C3)C(=O)OC12C.O=CO (centres unmarked) [4.42]	0.12	0.5	<0.06	>64.00	<0.06
CCC1OC(=O)C(C)C(=O)C(C)C(OC2OC(C)CC(N(C)C)C2O)C(C)(OC)CC(C)C(=O)C(C)C2N(CC3CN(Cc4n[nH]c5ncccc45)C3)C(=O)OC12C.O=CO (centres unmarked) [4.43]	0.25	0.12	1	>64.00	<0.06
CCC1OC(=O)C(C)C(=O)C(C)C(OC2OC(C)CC(N(C)C)C2O)C(C)(OC)CC(C)C(=O)C(C)C2N(CC3CN(C(=O)c4ccnc5nc[nH]c45)C3)C(=O)OC12C.O=CO (centres unmarked) [4.45]	16	>64.00	4	>64.00	<0.06
CCC1OC(=O)C(C)C(=O)C(C)C(OC2OC(C)CC(N(C)C)C2O)C(C)(OC)CC(C)C(=O)C(C)C2N(CC3CN(C(=O)c4cccc5ncoc45)C3)C(=O)OC12C.O=CO (centres unmarked) [4.46]	1	0.5	<0.06	64	<0.06
CCC1OC(=O)C(C)C(=O)C(C)C(OC2OC(C)CC(N(C)C)C2O)C(C)(OC)CC(C)C(=O)C(C)C2N(CC3CN(C(=O)c4cncc5ccccc45)C3)C(=O)OC12C.O=CO (centres unmarked) [4.47]	0.75	0.19	0.12	>64.00	<0.06
CC[C@H]1OC(=O)[C@H](C)C(=O)[C@H](C)[C@@H](O[C@@H]2O[C@H](C)C[C@H](N(C)C)[C@H]2O)[C@](C)(OC)C[C@@H](C)C(=O)[C@H](C)[C@H]2N(CC3(C)CN(Cc4ccc5ncccc5c4)C3)C(=O)O[C@]12C [6.01]	1 (≈ 1.19 µM)	0.5 (≈ 0.597 µM)	0.5 (≈ 0.597 µM)	>64.00	<0.06
CC[C@H]1OC(=O)[C@H](C)C(=O)[C@H](C)[C@@H](O[C@@H]2O[C@H](C)C[C@H](N(C)C)[C@H]2O)[C@](C)(OC)C[C@@H](C)C(=O)[C@H](C)[C@H]2N(CC3(C)CN(Cc4cccc5ncccc45)C3)C(=O)O[C@]12C [6.02]	2 (≈ 2.39 µM)	<0.06	0.25 (≈ 0.299 µM)	32 (≈ 38.2 µM)	<0.06
CC[C@H]1OC(=O)[C@H](C)C(=O)[C@H](C)[C@@H](O[C@@H]2O[C@H](C)C[C@H](N(C)C)[C@H]2O)[C@](C)(OC)C[C@@H](C)C(=O)[C@H](C)[C@H]2N(CC3(C)CN(Cc4c[nH]c5ncccc45)C3)C(=O)O[C@]12C [6.03]	0.5 (≈ 0.605 µM)	<0.06	0.12 (≈ 0.145 µM)	16 (≈ 19.4 µM)	<0.06
CC[C@H]1OC(=O)[C@H](C)C(=O)[C@H](C)[C@@H](O[C@@H]2O[C@H](C)C[C@H](N(C)C)[C@H]2O)[C@](C)(OC)C[C@@H](C)C(=O)[C@H](C)[C@H]2N(CC3(C)CN(Cc4ccc5nccnc5c4)C3)C(=O)O[C@]12C [6.04]	1 (≈ 1.19 µM)	0.25 (≈ 0.298 µM)	0.25 (≈ 0.298 µM)	>64.00	<0.06
CC[C@H]1OC(=O)[C@H](C)C(=O)[C@H](C)[C@@H](O[C@@H]2O[C@H](C)C[C@H](N(C)C)[C@H]2O)[C@](C)(OC)C[C@@H](C)C(=O)[C@H](C)[C@H]2N(CC3(C)CN(Cc4cccc5nccnc45)C3)C(=O)O[C@]12C [6.05]	1 (≈ 1.19 µM)	<0.06	0.12 (≈ 0.143 µM)	>64.00	<0.06
